From patent publication US12661313B2, “Cosmetic composition” (MARY KAY INC., priority 2019, dated 2026)

Assays:
[1] = system: procollagen-1; experiment: Collagen Stimulation Assay (PICP ELISA, Takara #MK101); type: cell-based; conditions: normal human adult epidermal fibroblasts treated 3 days, culture medium
From the text: Collagens (types I, II, III, IV and V) are synthesized as precursor molecules called procollagens. These precursor molecules contain additional peptide sequences, usually called “propeptides”, at both the amino-terminal and the carboxy-terminal ends. During cellular expression and secretion, procollagens are assembled in the trimeric form and then cleaved at specific N- and C-terminal sites by specific endopeptidases, generating three fragments: procollagen-1 N-terminal propeptide (PINP), Type I collagen, and procollagen-1 carboxy-terminal propeptide (PICP).
The function of the propeptides is to facilitate the winding of procollagen molecules into a triple-helical conformation within the endoplasmic reticulum. […]
Quantitative detection of PICP in fibroblast cell extracts and culture supernatants was performed with an enzyme immunoassay kit (e.g., Takara #MK101) to assess the effects of the ingredients on the synthesis of PICP in skin. […] The assay employed the quantitative sandwich enzyme immunoassay technique whereby a monoclonal antibody specific for procollagen peptide was pre-coated onto a microplate. […] Color development was stopped and the intensity of the color at 450 nm was measured using a microplate reader. […]

[2] = system: IL-6; experiment: Inhibition of IL-6
[3] = biological target: T1, MMP-9 (Homo sapiens, UniProt P14780); experiment: Matrix Metalloproteinase 9 Enzyme Activity (MMP-9) Assay (BioMol AK-410); type: biochemical; conditions: thiopeptide chromogenic substrate, absorbance 412 nm
T1 construct: purchased BioMol International AK-410
T1 sequence (P14780 107-444 limits assumed): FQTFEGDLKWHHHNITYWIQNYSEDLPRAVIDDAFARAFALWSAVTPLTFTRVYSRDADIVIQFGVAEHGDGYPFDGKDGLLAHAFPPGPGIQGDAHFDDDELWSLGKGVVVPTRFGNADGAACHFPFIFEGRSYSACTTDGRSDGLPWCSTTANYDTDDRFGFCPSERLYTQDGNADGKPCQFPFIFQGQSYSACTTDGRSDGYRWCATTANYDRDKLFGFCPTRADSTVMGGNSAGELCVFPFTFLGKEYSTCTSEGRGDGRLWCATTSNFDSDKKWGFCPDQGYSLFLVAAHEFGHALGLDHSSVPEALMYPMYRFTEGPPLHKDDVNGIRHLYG
From the text: (§1) MMPs are extracellular proteases that play a role in many normal and disease states by virtue of their broad substrate specificity. MMP-3 substrates include collagens, fibronectins, and laminin; while MMP-9 substrates include collagen VII, fibronectins and laminin. Colorimetric Drug Discovery kits from BioMol International for MMP-3 (AK-400) and MMP-9 (AK-410) were used to measure protease activity of MMPs using a thiopeptide as a chromogenic substrate (Ac-PLG-[2-mercapto-4-methyl-pentanoyl]-LG-OC2H5)5,6. The MMP cleavage site peptide bond is replaced by a thioester bond in the thiopeptide. Hydrolysis of this bond by an MMP produces a sulfhydryl group, which reacts with DTNB [5,5′-dithiobis(2-nitrobenzoic acid), Ellman's reagent] to form 2-nitro-5-thiobenzoic acid, which can be detected by its absorbance at 412 nm (ε=13,600 M−1 cm−1 at pH 6.0 and above 7). It was determined that Rosmarinus officinalis leaf extract inhibited MMP-3 by 40%, Morus alba fruit extract inhibited by 29%, and tetrahexyldecyl ascorbate inhibited by 38%. It was determined that Rosmarinus officinalis leaf extract inhibited MMP-9 by 61%, Morus alba fruit extract inhibited by 84%, tetrahexyldecyl ascorbate inhibited by 11%, and Acmella oleracea extract inhibited by 80%.

[4] = biological target: T2, MMP-3 (Homo sapiens, UniProt P08254); experiment: Matrix Metalloproteinase 3 Enzyme Activity (MMP-3) Assay (BioMol AK-400); type: biochemical; conditions: thiopeptide chromogenic substrate, absorbance 412 nm
T2 construct: purchased BioMol International AK-400
T2 sequence (P08254 100-272 limits assumed): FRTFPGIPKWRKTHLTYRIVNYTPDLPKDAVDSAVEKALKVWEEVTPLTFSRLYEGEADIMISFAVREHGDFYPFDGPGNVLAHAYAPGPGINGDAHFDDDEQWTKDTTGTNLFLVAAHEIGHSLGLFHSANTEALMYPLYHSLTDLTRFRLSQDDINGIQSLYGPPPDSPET
From the text: as §1

[5] = system: TNF-α; experiment: Tumor Necrosis Factor Alpha (TNF-α) Assay (ELISA, PMA-treated keratinocytes); type: cell-based; conditions: normal human adult keratinocytes, PMA 10 ng/ml, 6 hours
From the text: Tumor Necrosis Factor Alpha (TNF-α) Assay: Rosmarinus officinalis leaf extract and saccharide isomerate inhibit TNF-α activity. The prototype ligand of the TNF superfamily, TNF-α, is a pleiotropic cytokine that plays a central role in inflammation. Increase in its expression is associated with an up regulation in pro-inflammatory activity. The bioassay used analyzed the effect of Rosmarinus officinalis leaf extract and saccharide isomerate on the production of TNF-α by human epidermal keratinocytes. The endpoint of this assay was a spectrophotometric measurement that reflects the presence of TNF-α and cellular viability. The assay employed the quantitative sandwich enzyme immunoassay technique whereby a monoclonal antibody specific for TNF-α had been pre-coated onto a microplate.
Standards and samples were pipetted into wells of the microplate and any TNF-α present was bound by the immobilized antibody. After washing away any unbound substances, an enzyme-linked polyclonal antibody specific for TNF-α was added to the wells. Following a wash to remove any unbound antibody-enzyme reagent, a substrate solution was added to the wells and color developed in proportion to the amount of TNF-α bound in the initial step using a microplate reader for detection at 450 nm. The color development can be stopped and the intensity of the color was measured. […]

Inhibit MMP-9, Change (%) [3]	Inhibit MMP-3, Change (%) [4]	Compound	Increase Collagen Expression (procollagen-1), Change (%) [1]	Inhibit IL-6, Change (%) [2]	Inhibit TNF-α, Change (%) [5]
11%	38%	CCCCCCCCC(CCCCCC)C(=O)OC[C@H](OC(=O)C(CCCCCC)CCCCCCCC)[C@H]1OC(=O)C(OC(=O)C(CCCCCC)CCCCCCCC)=C1OC(=O)C(CCCCCC)CCCCCCCC (some centres unmarked) [Tetrahexyldecyl ascorbate]	50%	38%	
		Saccharide isomerate			88%
